“Also recorded” adds a separate entry of the source.
Assays:
ACMSD-1 = ACMSD-1 (Homo sapiens (Human), UniProt Q8TDX5); experiment: ACMSD-1 modulation in HEK293T cells transiently expressing ACMSD; type: cell-based; conditions: about 50 nM to about 5 uM, 48 hrs to 72 hrs
Experimental: HEK293T cells are seeded and transfected to transiently express ACMSD. The cells are then stimulated with different concentrations of Compound 1, and then lysed to measure the ACMSD activity in a spectrophotometrical in vitro assay. The amount of the whole protein content in cell lysates is detected by Bradford analysis and used to get the specificity activity of the enzyme normalized in all samples.
HEK293T cells (ATCC) were seeded in six-well plates and transfected using Fugene HD to express transiently ACMSD. 24 hrs post transfection, the cells were stimulated for 48 hrs to 72 hrs with different concentrations of Compound 1 and then lysed to measure the ACMSD activity, by measuring the conversion of 30H-Anthranilic Acid into product (i.e. α-amino-beta-carboxymuconate-ε-semialdehyde, ACMS) in a spectrophotometrical in vitro assay. The amount of the whole protein content in cell lysates was detected by Bradford analysis. This value was used to get the specificity activity of the enzyme normalized in all samples (mU/ml or ΔE/Δt/mg of total protein).
Having determined the optimum stimulation time and transfection protocol cells were stimulated with different concentrations of Compound 1 (about 50 nM to about 5 uM).

SOD2 [1] = experiment: Modulation of SOD2 activity in AML-12 cells; type: cell-based, mouse; conditions: 24 hours
Experimental: Primary hepatocytes or AML-12 cells are lysed and total protein concentration is determined using the Bradford assay. SOD2 activity is determined at indicated times after treatment with a compound of Formula (I), Formula (Ia), Formula (Ib), Formula (II), or Formula (III), or a pharmaceutically acceptable salt thereof, using a SOD Assay Kit. Absorbance is determined and results are expressed in U/ml/mg of protein according to the standard curve and measured protein concentration. […]
Primary hepatocytes or AML-12 cells were then lysed in a 20 mM HEPES buffer (Gibco), pH 7.2, containing 1 mM EGTA (Sigma), 210 mM mannitol (Sigma), and 70 mM sucrose (AMRESCO). Total protein concentration was determined using the Bradford assay (BioRad). SOD-2 activity was determined at indicated times after ACMSD inhibitor treatment by the SOD Assay Kit (Cayman Chemical) according to the manufacturer's instructions. […] Absorbance was determined with a Victor X4 multi-label plate reader (Perkin-Elmer) at 450 nm. Results are expressed in U/ml/mg of protein according to the standard curve and measured protein concentration.

SOD2 [2] = experiment: Modulation of SOD2 activity in murine primary hepatocytes; type: cell-based, mouse; conditions: for SOD2 activity: primary murine hepatocytes, 24 hours
Experimental: Primary hepatocytes or AML-12 cells are lysed and total protein concentration is determined using the Bradford assay. SOD2 activity is determined at indicated times after treatment with a compound of Formula (I), Formula (Ia), Formula (Ib), Formula (II), or Formula (III), or a pharmaceutically acceptable salt thereof, using a SOD Assay Kit. Absorbance is determined and results are expressed in U/ml/mg of protein according to the standard curve and measured protein concentration.
Primary hepatocytes were prepared from 8-12-week-old C57BL/6J mice by collagenase perfusion method. Mouse livers were perfused with Hank's balanced salt solution (HBSS, KCl, 5.4 mM; KH2PO4, 0.45 mM; NaCl, 138 mM; NaHCO3, 4.2 mM; Na2HPO4, 0.34 mM; glucose, 5.5 mM; […]; EGTA, 50 mM; CaCl2, 50 mM; pH 7.4). Livers were then washed at a rate of 5 ml/min through the portal vein. After washing, livers were perfused with collagenase (0.025%) solution. Cell viability was assessed by the trypan blue method. Isolated primary hepatocytes were plated with DMEM medium (Gibco) including 10% FCS, 10 units per ml penicillin and HEPES for buffering. The cells were maintained in culture at 37° C. in a humidified atmosphere of 5% CO2/95% air. After 6-8 hrs of attachment, this medium was replaced with media containing different concentrations of an ACMSD inhibitor (i.e., Compound 1 or Compound 17) or with the corresponding concentration of DMSO (as a control). Primary hepatocytes were harvested about 24 hrs later if not indicated differently.
Primary hepatocytes or AML-12 cells were then lysed in a 20 mM HEPES buffer (Gibco), pH 7.2, containing 1 mM EGTA (Sigma), 210 mM mannitol (Sigma), and 70 mM sucrose (AMRESCO). Total protein concentration was determined using the Bradford assay (BioRad). SOD-2 activity was determined at indicated times after ACMSD inhibitor treatment by the SOD Assay Kit (Cayman Chemical) according to the manufacturer's instructions. In order to specifically detect the SOD2 activity 2 mM potassium cyanide was added to the assay, which inhibited both Cu/Zn-SOD and extracellular SOD, resulting in the detection of only Mn-SOD (SOD-2) activity. Absorbance was determined with a Victor X4 multi-label plate reader (Perkin-Elmer) at 450 nm. Results are expressed in U/ml/mg of protein according to the standard curve and measured protein concentration.

[3] = system: SIRT1-regulated genes (Sod2); experiment: RT-qPCR analysis of SIRT1-regulated genes in AML-12 cells; type: cell-based, mouse; conditions: 24 hrs
Experimental: (§1) Cells (AML-12, Hepa-1.6, HEK-293, primary human and murine hepatocytes) are treated with different concentrations of a compound of Formula (I), Formula (Ia), Formula (Ib), Formula (II), or Formula (III), or a pharmaceutically acceptable salt thereof and the gene expression of ACMSD, Pgc1a, Sod1, and Sod2 (MnSOD) is determined using RT-qPCR. Total RNA is extracted from cells and the extracted RNA is treated with DNase and used for reverse transcription (RT).
(§2) Gene expression of ACMSD and genes known to be regulated by SIRT1, (an enzyme that is strictly NAD^+ dependent) such as Pgc1a, Sod1, Sod2 (MnSOD), were analysed in AML-12 cells, Hepa-1.6 cells and primary murine hepatocytes treated with Compound 1 or 17.
(§3) Cells (AML-12, Hepa-1.6, HEK-293, primary human and murine hepatocytes) were treated with different concentrations of Compound 1 or Compound 17. Total RNA was extracted from cells using TRIzol (Invitrogen) according to the manufacturer's instructions. The RNA was treated with DNase, and 2 μg of RNA was used for reverse transcription (RT). 50× diluted cDNA was used for RT-quantitative PCR (RT-qPCR) reactions. The RT-qPCR reactions were performed using the Light-Cycler system (Roche Applied Science) and a qPCR Supermix (QIAGEN) with the indicated primers. The average of at least three technical repeats was used for each biological data point.

[4] = system: SIRT1-regulated genes (Sod2); experiment: RT-qPCR analysis of SIRT1-regulated genes in Hepa-1.6 cells; type: cell-based; conditions: Hepa-1.6 hepatic cell line; 24 hrs
Experimental: as §1, §2, §3

AML-12 cells = experiment: Cytotoxicity (LDH release, ATP level) in AML-12 cells; type: cell-based, mouse; conditions: 10 nM to 300 μM; 4 hrs; DMSO 1%
Experimental: (§4) HePG2 and AML-12 cells are seeded and a dose-response of the compound is performed at various concentrations. Cells are stimulated and the supernatant is used to perform LDH release as a measure of necrosis while the cells are lysed to detect ATP levels for determining cell viability.
(§5) Cytotoxicity: 20000 HePG2 and AML-12 cells were seeded in 96 well plate (Viewplate PerkinElmer). Dose-response of the compound in Table 2 was performed using HP D300 digital dispenser, ranging from 10 nM to 300 μM with constant DMSO 1% in medium. Cells were stimulated for 4 hrs at 37° C.; the supernatant was used to perform LDH release (Cytotox-one, Promega) as a measure of necrosis while the cells were lysed to detect ATP level for determining cell viability (Celltiter-glo, Promega) according to manufacturer's instructions.

HePG2 cells = experiment: Cytotoxicity (LDH release, ATP level) in HePG2 cells; type: cell-based; conditions: 10 nM to 300 μM; 4 hrs; DMSO 1%
Experimental: as §4, §5

hERG potassium channel = hERG potassium channel (Homo sapiens (Human), UniProt Q12809); experiment: Predictor hERG assay, fluorescence polarization tracer displacement; conditions: hERG channel affinity binding; DMSO 1%
Chain of hERG potassium channel (Q12809 whole entry): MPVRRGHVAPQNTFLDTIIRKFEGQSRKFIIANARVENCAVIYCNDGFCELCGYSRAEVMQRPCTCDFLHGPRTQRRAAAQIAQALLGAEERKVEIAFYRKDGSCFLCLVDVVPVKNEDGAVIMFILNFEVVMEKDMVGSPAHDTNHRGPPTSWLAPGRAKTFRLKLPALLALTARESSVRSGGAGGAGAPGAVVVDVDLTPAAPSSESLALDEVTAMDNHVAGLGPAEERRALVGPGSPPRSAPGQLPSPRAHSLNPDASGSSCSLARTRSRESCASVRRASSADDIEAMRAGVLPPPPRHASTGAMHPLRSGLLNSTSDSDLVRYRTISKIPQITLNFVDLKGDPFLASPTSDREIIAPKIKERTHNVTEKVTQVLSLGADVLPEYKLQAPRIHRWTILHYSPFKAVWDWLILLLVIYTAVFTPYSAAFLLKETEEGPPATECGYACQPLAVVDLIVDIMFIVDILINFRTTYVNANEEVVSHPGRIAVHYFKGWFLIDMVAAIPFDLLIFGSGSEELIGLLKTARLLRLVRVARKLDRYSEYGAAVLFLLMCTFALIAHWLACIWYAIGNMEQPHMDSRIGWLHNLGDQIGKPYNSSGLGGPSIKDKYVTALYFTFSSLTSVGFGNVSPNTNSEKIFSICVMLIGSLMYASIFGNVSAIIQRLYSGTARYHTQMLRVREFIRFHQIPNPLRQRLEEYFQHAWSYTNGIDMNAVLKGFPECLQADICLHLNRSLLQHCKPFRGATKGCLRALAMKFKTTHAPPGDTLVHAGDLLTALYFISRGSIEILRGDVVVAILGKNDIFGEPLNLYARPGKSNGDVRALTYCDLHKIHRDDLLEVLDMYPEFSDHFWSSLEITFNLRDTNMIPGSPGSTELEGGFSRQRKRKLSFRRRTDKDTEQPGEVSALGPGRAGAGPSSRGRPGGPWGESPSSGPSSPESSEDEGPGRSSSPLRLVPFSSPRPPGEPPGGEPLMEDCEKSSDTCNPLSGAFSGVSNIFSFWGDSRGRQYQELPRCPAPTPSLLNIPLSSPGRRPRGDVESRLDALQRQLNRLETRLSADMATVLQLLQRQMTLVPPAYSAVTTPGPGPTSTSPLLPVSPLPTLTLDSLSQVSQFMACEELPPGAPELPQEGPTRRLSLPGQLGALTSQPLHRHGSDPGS
Text: The Predictor hERG assay kit is stably transfected with hERG potassium channel and a high-affinity red fluorescent hERG channel ligand and is used for the determination of hERG channel affinity binding of compounds of Formula (I), Formula (Ia), Formula (Ib), Formula (II), or Formula (III), or a pharmaceutically acceptable salt thereof. Compounds that bind to the hERG channel protein (competitors) are identified by their ability to displace the tracer which results in a lower fluorescence polarization.
The Predictor hERG assay kit (Invitrogen), containing membrane preparations from Chinese hamster ovary cells stably transfected with hERG potassium channel and a high-affinity red fluorescent hERG channel ligand (tracer), was used for the determination of hERG channel affinity binding of the test compounds in Table 2. Compounds that bind to the hERG channel protein (competitors) were identified by their ability to displace the tracer, resulting in a lower fluorescence polarization. The final concentration of DMSO in each well was maintained at 1%. The assays were performed according to the manufacturer's protocol (Invitrogen).

FoxO1 = FoxO1 phosphorylation levels in AML-12 cells (western blot); type: cell-based, mouse; conditions: 24 hours, FIG. 6
Experimental: AML-12 cells are treated with different concentrations of a compound of Formula (I), Formula (Ia), Formula (Ib), Formula (II), or Formula (III), or a pharmaceutically acceptable salt thereof. Cells are then lysed, and analyzed by SDS-PAGE/western blot. Blocking and antibody incubations are then done and each protein present is detected with its specific antibody.
AML-12 cells were treated with different concentrations of Compound 1 or Compound 17 for 24 hours. Cells were then lysed in lysis buffer (50 mM Tris, 150 mM KCl, EDTA 1 mM, NP40 1%) containing protease and phosphatase inhibitors, and analyzed by SDS-PAGE/western blot. Blocking and antibody incubations were done in 5% milk. Each protein present was detected with its specific antibody. Tubulin antibody was obtained from Sigma Inc, FoxO1 and phopho-FoxO1 (Ser256) antibodies were obtained from Cell Signaling. Antibody detection reactions were developed by enhanced chemiluminescence (Advansta, Calif., USA) using x-ray films.

[5] = system: human primary hepatocytes; experiment: NAD+ content in human primary hepatocytes (LCMS/MS); type: cell-based; conditions: 0.5 μM and 5 μM, FIG. 1
Experimental: Primary hepatocytes are treated with different concentrations of a compound of Formula (I), Formula (Ia), Formula (Ib), Formula (II), or Formula (III), or a pharmaceutically acceptable salt thereof, or MEHP (control) after seeding. The compound is replaced every 24 hours, and then cells are directly harvested and lysed to detect NAD^+ content through LC MS/MS (liquid chromatography mass spectrometry/mass spectroscopy).
The NAD^+ concentration or content was determined in human primary hepatocytes treated with Compound 4. Vehicle (NT) was used as a control.
At least three experiments were run treating primary hepatocytes with different concentrations of Compound 4 (0.5 μM and 5 μM) after 48 hrs from seeding. Compound 4 was replaced every 24 hrs, and then cells were directly harvested and lysed with ACN/H2O (ratio 5:1). LCMS/MS was used to detect and measure NAD^+ concentration/content. […] (FIG. 1)
The NAD^+ concentration or content was determined in human primary hepatocytes treated with Compound 1 and MEHP, a known ACMSD inhibitor. MEHP was used as a control.
At least three experiments were run treating primary hepatocytes with different concentrations of Compound 1 (0.5 μM, 5 μM, and 50 μM) after 48 hrs from seeding. Compound 1 was replaced every 24 hrs, and then cells were directly harvested and lysed with ACN/H2O (ratio 5:1). […]

[6] = system: murine primary hepatocytes; experiment: NAD+ content in murine primary hepatocytes (HPLC, mass-spectrometry); type: cell-based, mouse; conditions: 24 hours
[7] = system: SIRT1-regulated genes (Pgc1a, Sod1, Sod2); experiment: RT-qPCR analysis of SIRT1-regulated genes in primary murine hepatocytes; type: cell-based; conditions: primary mouse hepatocytes; 24 hrs; 5 nM-500 nM range
Experimental: as §1, §2, §3

hACMSD (ACMSD1) = hACMSD (ACMSD1) (Homo sapiens (Human), UniProt Q8TDX5); experiment: Determination of ACMSD1 inhibition, spectrophotometrical in vitro assay; type: biochemical; conditions: 500 μM
Chain of hACMSD (ACMSD1) (Q8TDX5 whole entry): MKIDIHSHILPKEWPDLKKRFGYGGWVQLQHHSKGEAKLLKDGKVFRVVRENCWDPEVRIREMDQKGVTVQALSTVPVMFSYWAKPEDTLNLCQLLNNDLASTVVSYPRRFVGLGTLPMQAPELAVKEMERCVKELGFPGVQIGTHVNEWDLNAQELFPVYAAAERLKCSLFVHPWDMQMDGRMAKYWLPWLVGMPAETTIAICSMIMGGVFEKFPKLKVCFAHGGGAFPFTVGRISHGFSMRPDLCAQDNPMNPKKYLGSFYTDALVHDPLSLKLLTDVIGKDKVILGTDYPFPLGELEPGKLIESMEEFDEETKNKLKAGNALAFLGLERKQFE
Experimental: The activity of compounds as inhibitors of ACMSD1 is determined in a spectrophotometrical in vitro assay. The pre-assay mixture is incubated and a compound of Formula (I), Formula (Ia), Formula (Ib), Formula (II), or Formula (III), or a pharmaceutically acceptable salt thereof, and ACMSD1 solution is then added. The effect of ACMS concentration on the enzyme activity is investigated by varying 3-hydroxyanthranilic acid (3OH-HA) concentration in the pre-assay mixture. Kinetic parameters are calculated from the initial velocity data using a Lineweaver-Burk plot.
The activity of compounds 1-19 and 21-23 as inhibitors of ACMSD1 was determined by measuring the conversion of 30H-Anthranilic Acid into product (i.e., ACMS) in a spectrophotometrical in vitro assay.
The pre-assay mixture consisting of 3-hydroxyanthranilic acid (3OH-HA), 3-hydroxyanthranilic acid, 3,4-diOxygenase (HAO), and a dialyzed crude extract of E. coli BL21 (DE3) cells expressing the recombinant enzyme, was incubated at 25° C. with monitoring of the increase in absorbance at 360 nm due to the formation of ACMS from 3OH-HA. After the reaction was completed within ˜2 mins, an aliquot of ACMSD1 solution (prepared and purified from Pichia Pastoris overexpressing the recombinant enzyme) was added, and the decrease in absorbance at 360 nm was followed at 15 second intervals. […]

Chain of ACMSD-1 (Q8TDX5 whole entry): as above

With `N#Cc1c(-c2ccccc2)nc(SCc2cccc(C(=O)O)c2)[nH]c1=O` [Compound 1] the “ACMSD-1 activity in over-expression cell-based assay” value (ACMSD-1) was “inhibited ACMSD-1 activity, in a dose dependent manner”, the SOD2 activity (SOD2 [1]) was “induced in a dose-dependent manner” and the SOD2 activity (SOD2 [2]) was “induced in a dose-dependent manner”. The “Sod2 mRNA levels” value [3] was “increased in a dose-dependent manner”, the “Sod2 mRNA levels” value [4] was “increased in a dose-dependent manner” and the “Cytotoxicity AML-12” value (AML-12 cells) was “Not Toxic”. The “Cytotoxicity Hep-G2” value (HePG2 cells) was “Not Toxic”, the hERG (hERG potassium channel) was “No Activity” and the “FoxO1 phosphorylation at Ser256” value (FoxO1) was “decrease in FoxO1 phosphorylation at Ser256 with increasing dose”.
In the case of `N#Cc1c(-c2cccs2)nc(SCc2cccc(C(=O)O)c2)[nH]c1=O` [Compound 4], the “ACMSD-1 inhibition (NAD+ concentration/content)” value [5] is reported as “inhibits ACMSD-1 enzyme at concentrations as low as 0.5 μM and 5 μM”, the “Cytotoxicity AML-12” value (AML-12 cells) is reported as “Not Toxic” and the “Cytotoxicity Hep-G2” value (HePG2 cells) is reported as “Not Toxic”. For the same compound, the hERG (hERG potassium channel) was “No Activity”.
`N#Cc1c(-c2cccs2)nc(SCc2cccc(-c3nn[nH]n3)c2)[nH]c1=O` [Compound 17] was tested, and the SOD2 activity (SOD2 [1]) was “induced in a dose-dependent manner”, the “dose at which effects on SOD2 activity were observed” value (SOD2 [2]; primary hepatocytes) was “about 5 nM” and the “dose at which the effect on SOD2 activity reached a maximum” value (SOD2 [2]; primary hepatocytes) was “about 50 nM”. For the same compound, the SOD2 activity (SOD2 [2]) was “induced in a dose-dependent manner”, the “intra-cellular NAD+ levels” value ([6]; 5 nM, 10 nM and 50 nM, FIG. 2) was “increase in NAD^+ levels; also recorded: significant and dose-dependent increase” and the “concentration with significant effect on NAD+ levels” value [6] was no more than 5 nM. The “Pgc1a mRNA expression levels” value [7] was “dose-dependent increase”, the “Sod2 (MnSOD) mRNA expression levels” value [7] was “dose-dependent increase” and the “Cytotoxicity AML-12” value (AML-12 cells) was “Not Toxic”. The “Cytotoxicity Hep-G2” value (HePG2 cells) was “Not Toxic”, the hERG (hERG potassium channel) was “No Activity” and the “FoxO1 phosphorylation at Ser256” value (FoxO1) was “decrease in FoxO1 phosphorylation at Ser256 with increasing dose”.
For `CCCCC(CC)COC(=O)c1ccccc1C(=O)O` (centres unmarked) [MEHP, mono-(2-ethylhexyl)phthalate], the “inhibition of purified ACMSD-1 enzyme” value (hACMSD (ACMSD1)) was 70%.

From patent US9708272B2, “Inhibitors of α-amino-β-carboxymuconic acid semialdehyde decarboxylase” (TES Pharma S.r.l., priority 2014, dated 2017)
